From US20100105707A1, “METHOD OF TREATING OR PREVENTING OXIDATIVE STRESS-RELATED DISEASE” (The United States of America, priority 2006, published 2010)
In brackets after ≈: the same amount, converted by molar mass.

Columns and labels:
[1] = system: mouse model of focal ischemic stroke; experiment: Focal cerebral ischemia-reperfusion (middle cerebral artery occlusion) model; assay type: in vivo, C57BL/6 mice; settings: administered 1 h after ischemia onset
Protocol: (§1) FIG. 4 illustrates that a compound of formula (I) improves functional outcome (e.g., ambulation) and reduces brain damage in a mouse model of focal ischemic stroke in an embodiment of the invention. In FIG. 4A neurological function is scored at 24, 48 and 72 hours post-stroke. In FIG. 4B infarct volume is quantified at 72 hours post-stroke. Values are the mean and SEM (n=8-12 mice). *p<0.001 compared to sham. +p<0.01 compared to vehicle.
as §1, with “FIG. 5” for “FIG. 4”, “that compounds” for “that a compound”, “(I) improve” for “(I) improves”, “outcome” for “outcome (e.g., ambulation)”, “FIG. 5A,” for “FIG. 4A”, “FIG. 5B,” for “FIG. 4B”
Three month-old male C57BL/6 mice are maintained on a 12 h light/12 h dark cycle with continuous access to food and water. The method for subjecting the mice to middle cerebral artery occlusion-reperfusion has been described previously (Arumugam et al., Am. J. Physiol. Heart Circ. Physiol., 287, H2555-2560 (2004)). Mice are anesthetized with isofluorane, a midline incision is made in the neck, and the left external carotid and pterygopalatine arteries are isolated and ligated with 5-0 silk thread. The internal carotid artery (ICA) is occluded at the peripheral site of the bifurcation of the internal carotid artery and the pterygopalatine artery with a small clip and the common carotid artery is ligated with 5-0 silk thread. The external carotid artery is cut, and a 6-0 nylon monofilament with a tip that is blunted (0.2-0.22 mm) with a coagulator is inserted into the external carotid artery. After the clip at the ICA is removed, the nylon thread is advanced into the middle cerebral artery until light resistance is felt. The nylon thread and the common carotid artery ligature are removed after 1 h of occlusion to initiate reperfusion. In the sham group, these arteries are visualized but not disturbed. Mice are administered either uric acid analogs of formula (I) or vehicle (dimethylsulfoxide) by infusion into the femoral vein (10 μl infused over a 2 min period) either 30 min prior to or 60 min after the onset of middle cerebral artery (MCA) occlusion. In a separate set of experiments anesthetized animals from all groups (4-6 mice per group) undergo cerebral blood flow (CBF) measurements using a laser Doppler perfusion monitor. All blood flow measurements are conducted with the mouse fixed in a plastic frame with the probe placed in the region of cerebral cortex perfused by the middle cerebral artery. These procedures are approved by the National Institute on Aging Animal Care and Use Committee.
The functional consequences of focal cerebral ischemia-reperfusion injury are evaluated by using a five-point neurological deficit score (0, no deficit; 1, failure to extend right paw; 2, circling to the right; 3, falling to the right; and 4, unable to walk spontaneously) and are assessed in a blinded fashion. At 72 h of reperfusion, the mice are killed with a lethal dose of isofluorane. The brains are immediately removed and placed into PBS (4° C.) for 15 min, and 2-mm coronal sections are cut with a tissue cutter. The brain sections are stained with 2% 2,3,5-triphenyltetrazolium chloride in phosphate buffer at 37° C. for 15 min. The stained sections are photographed, and the digitized images are used for analysis. The borders of the infarct in each brain slice are outlined and the area quantified using a NIH image 6.1 software. To correct for brain swelling, the infarct area is determined by subtracting the area of undamaged tissue in the left hemisphere from that of the intact contralateral hemisphere. Infarct volume is calculated by integration of infarct areas for all slices of each brain.

[2] = Water solubility in cold water; assay type: physicochemical
Protocol: Commercially available derivatives are obtained from Sigma-Aldrich (St. Louis, Mo.). The methods used for the synthesis of methyl- and sulfur-derivatives of uric acid are similar to those described previously (Beaman et al., J. Org. Chem., 27, 986-990 (1962) and Maruyama et al., Nucleosides, Nucleotides, Nucleic Acids, 19, 1193-1203 (2000)) and structures are confirmed by ^13C nuclear magnetic resonance (NMR) and ultra-violet (UV) spectral analyses. Uric acid analogs are assayed by high performance liquid chromatography (HPLC) and found to be of >97% purity.

skin wound = experiment: Punch biopsy wound healing model; assay type: in vivo, C57BL/6 mice; settings: single topical dose at time of wounding; on average; saline control greater than 13 days
Excerpt: A defined wound is created with a 4 mm Accuderm human punch biopsy kit (Accuderm, Ft Lauderdale, Fla.) in C57BL/6 mice. Specifically, the loose skin on the back of a mouse was brought together and, under anesthetic, a single punch was made through either side to create two wounds through the skin alone—without affecting underlying tissue. Immediately post-wounding, the wounds are either treated topically with normal saline (to serve as the non-treated control group) or with a compound of formula (I). Each day the wounds are digitally photographed and wound areas are determined by computer integration of the photographs. Wound area at the time of wounding (day 0) is arbitrarily set to a relative value of 1 for all wounds; such that subsequent wound areas are converted to relative wound areas by dividing the wound area at day n by the wound area at day zero.

[3] = Pharmacokinetics: plasma and brain levels after intravenous administration; assay type: in vivo, C57BL/6 mice; settings: mice
Protocol: Mice are administered intravenously 10 mg/kg ([…]) of uric acid as a reference compound and equimolar doses of its analogs (sUA4-2,6,8 trithio uric acid, 12.9 mg/kg; mUA2-1,7 dimethyl uric acid, 11.7 mg/kg; sUA2-6,8 dithio uric acid, 11.9 mg/kg). Three month-old male C57BL/6 mice are injected with a compound and are euthanized 15, 30, 60 or 120 min later (1 mouse/time point/compound). Blood and brain tissues are rapidly removed, frozen on dry ice and kept at −80° C. before quantification of uric acid analogs. Plasma and cerebral cortical tissues are extracted in 10 volumes of 0.5 M perchloric acid and 1 mM ethylenediamine tetraacetic acid (EDTA). Levels of uric acid analogs in the extracts are quantified by HPLC methods employing a 25 cm RP C18 column, 25 mM KH2PO4 buffer (pH=4.6) with 1 ml/min flow rate and UV diode array detection.
Mice that are administered mUA2, sUA2 or sUA4 intravenously are euthanized at increasing time points (15, 30, 60 and 120 min) and levels of the compounds in plasma and brain tissue are measured.

[4] = system: cultured hippocampal neurons; experiment: Oxygen and glucose deprivation (OGD) of cultured hippocampal neurons; assay type: cell-based, rat; settings: compared to neurons in control cultures; FIG. 2
Protocol: FIG. 2 illustrates that compounds of formula (I) protect cultured hippocampal neurons against ischemia-like conditions in an embodiment of the invention. Neuronal survival is quantified and values are the mean and SEM (n=8-10 cultures). *p<0.05 compared to the vehicle/OGD cultures. Synaptosomes are prepared from the cerebral cortex of 2-3 month-old adult male Sprague-Dawley rats and are cryopreserved using methods described previously (Begley et al., Brain Res. Protoc., 3, 76-82 (1998)). After thawing, cryopreserved synaptosomes are washed twice with Locke's buffer and plated in 24-well plates at a protein concentration of 250 μg per well. After a 30 min period to permit attachment of the synaptosomes to the substrate, synaptomoses are incubated for 1 h with compounds of formula (I) (1-10 μM), and then exposed for 4 h to freshly prepared 50 μM Fe^2+ (FeSO4). After an additional 30 min incubation in the presence of 10 μM dihydrorhodamine 123 (DHR), a probe for ROS which fluoresces when oxidized (Keller et al., J. Neurochem., 69, 273-284 (1997)), the synaptosomes are washed twice with Locke's buffer and levels of fluorescence are quantified using a fluorescence plate reader (488 nm excitation and 510 emission wavelengths). Fluorescence values for wells exposed to experimental treatments are expressed as a percentage of the mean value for untreated control wells. […] Methods for preparation and maintenance of cultures of PC12 cells and primary embryonic rat hippocampal neurons have been described previously (Furukawa et al., J. Neurosci., 17, 8178-8186 (1997) and Chan et al., J. Biol. Chem., 279, 28733-28743 (2004)). Cells are plated into polyethylenimine-coated plastic 96-well culture plates containing Neurobasal medium with B27 supplements. Experiments are performed in 7-8 day-old cultures (hippocampal neurons) or Dulbecco's modified eagle's medium (DMEM) with 10% fetal bovine serum (PC12 cells). […] Cell viability is quantified by counting viable neurons in premarked microscope fields prior to and following experimental treatment and then calculating percent survival.

- solubility [2]: 2000 µg/mL (≈ 9.99 mM)
- Kp ([3]; male, C57BL/6, mouse, brain (cerebral cortical tissue) / plasma, early time points (15-30 min), read-out: brain tissue concentration as percentage of plasma concentration): ~0.1
SMILES: O=c1[nH]c(=S)c2[nH]c(=S)[nH]c2[nH]1 [sUA2, 6,8 dithio uric acid]
- functional outcome (neurological deficit score) ([1]; FIG. 5A): significantly improve functional outcome
- brain damage ([1]; FIG. 5B): decrease brain damage
- time to wound closure post wounding (skin wound): 8 days
- detection in the brain ([3]; equimolar to 10 mg/kg uric acid, 15, 30, 60 and 120 min): detected in the brain at all time points examined
- brain concentration time course versus plasma ([3]; through the 120 min time point): remain elevated while plasma concentrations decrease progressively
- resistance to OGD induced death [4]: significantly more resistant
